Values of other authors as cited in US20240108579A1, “UTIDELONE LIPOSOME COMPOSITION, AND PREPARATION METHOD THEREFOR AND USE THEREOF” (Chengdu Biostar Pharmaceuticals, LTD., priority 2021, published 2024).
Where two headings read alike, the source gives them in different places.

CC1=CCC(C(C)=Cc2csc(C)n2)OC(=O)CC(O)C(C)(C)C(=O)C(C)C(O)C(C)CCC1 (stereo not drawn) [Utidelone, 4,8-dihydroxy-5,5,7,9,13-pentamethyl-16-[1-methyl-2-(2-methyl-thiazole-4-yl)-vinyl]-hexadecoxetane-13-en-2,6-one lactone]
solubility (in words) (ethanol, methanol, ethyl acetate, and chloroform): easily soluble
saturated solubility in water (water): less than 1 μg/ml
solubility (in words) (water): insoluble
